According to ChEMBL document CHEMBL1667825, “Synthesis of cross-reactive carbohydrate determinants fragments as tools for in vitro allergy diagnosis” (Bioorg Med Chem, 2011):
Calls of active or inactive are those of the source. The calls are words filed in the database; no cut-off is given here.

Tests used:
[1] = species on record: Oryctolagus cuniculus; assay: Binding affinity to rabbit anti-HRP immunoglobulin G antibody at 5 ug/ml using p-nitrophenyl-phosphate substrate after 15 mins by ELISA
[2] = species on record: Homo sapiens; assay: Binding affinity to human anti-bromelain immunoglobulin E in multiple pollen sensitised patient serum using after 30 mins by ELISA
[3] = species on record: Oryctolagus cuniculus; assay: Binding affinity to rabbit anti-bee venom immunoglobulin G antibody at 5 ug/ml using p-nitrophenyl-phosphate substrate after 15 mins by ELISA

O=C(CCCCCO[C@@H]1O[C@H](CO[C@H]2O[C@H](CO)[C@@H](O)[C@H](O)[C@@H]2O)[C@@H](O)[C@H](O)[C@@H]1O[C@@H]1OC[C@@H](O)[C@H](O)[C@H]1O)NCCCCCCNC(=O)CCCC[C@@H]1SC[C@@H]2NC(=O)N[C@@H]21
Activity [1]: Active

O=C(CCCCCO[C@@H]1O[C@H](CO[C@H]2O[C@H](CO)[C@@H](O)[C@H](O)[C@@H]2O)[C@@H](O)[C@H](O[C@@H]2O[C@@H](CO)[C@H](O)[C@@H](O)[C@H]2O)[C@@H]1O[C@@H]1OC[C@@H](O)[C@H](O)[C@H]1O)NCCCCCCNC(=O)CCCC[C@@H]1SC[C@@H]2NC(=O)N[C@@H]21
Activity [1]: Active | Activity [2]: Active

CC(=O)N[C@H]1[C@H](O[C@H]2[C@H](O[C@@H]3O[C@@H](C)[C@@H](O)[C@@H](O)[C@@H]3O)[C@@H](NC(C)=O)[C@H](OCCCCCC(=O)NCCCCCCNC(=O)CCCC[C@H]3[C@H]4NC(=O)N[C@H]4CS3(=O)=O)O[C@@H]2CO)O[C@H](CO)[C@@H](O)[C@@H]1O
Activity [1]: Active | Activity [2]: Active

CC(=O)N[C@H]1[C@H](O[C@H]2[C@H](O[C@@H]3O[C@@H](C)[C@@H](O)[C@@H](O)[C@@H]3O)[C@@H](NC(C)=O)[C@H](OCCCCCC(=O)NCCCCCCNC(=O)CCCC[C@H]3[C@H]4NC(=O)N[C@H]4CS3(=O)=O)O[C@@H]2CO[C@H]2O[C@H](C)[C@H](O)[C@H](O)[C@H]2O)O[C@H](CO)[C@@H](O)[C@@H]1O
Activity [1]: Active | Activity [3]: inactive | Activity [2]: Active
